Key:
[1] = tested on: 20-HETE synthase originated from rat kidney microsome; experiment: Inhibitory effect of 20-HETE synthase originated from rat kidney microsome; format: biochemical; conditions: rat kidney microsome; for Inhibition rate (1 μM): 1 μM of subject compound, 20-HETE production without compound set to 100%; for IC50: concentration at which 20-HETE production was inhibited to 50%
How it was run: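 Kidney microsomes from 6-week male spontaneously hypertensive rats were used with tritium-arachidonic acid and NADPH. 20-HETE was quantified by radio-HPLC on a C18 column.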

Compound | melting point | Inhibition rate (1 μM) [1] | IC50 [1]
CC#CCCOc1ccc(N/C=N/O)cc1 [Comp. 337] | 135 to 136.5 °C | 119.4 | 2.1 nM
CC/C=C/COc1ccc(N/C=N/O)cc1 [Comp. 338] | 100 to 102 °C | 119.8 | 0.9 nM
O/N=C/Nc1ccc(OCCN2CCCC2)cc1 [Comp. 339] | 113.5 to 114.5 °C | 88 | 124 nM
O/N=C/Nc1ccc(OCC2COCO2)cc1 (stereo not drawn) [Comp. 340] | 157.5 to 158 °C | 97.4 | 3 nM
O/N=C/Nc1ccc(OCCC2CCCCC2)cc1 [Comp. 341] | 129.5 to 133 °C | 104 | 1.2 nM
O/N=C/Nc1ccc(OCc2ccc3ccccc3n2)cc1 [Comp. 342] | 174.5 to 175.5 °C | 98.5 | 5.3 nM
O/N=C/Nc1ccc(OCc2ccccc2)cc1 [Comp. 343] | 166.5 to 167 °C | 84.5 | 3.3 nM
O/N=C/Nc1ccc(OCc2ccncc2)cc1 [Comp. 344] | 180 to 180.5 °C | 107 | 37.5 nM
O/N=C/Nc1ccc(OCc2ccccn2)cc1 [Comp. 345, N-[4-(pyridin-2-ylmethoxy)phenyl]-N′-hydroxyformamidine] | 159.5 to 161 °C | 107 | 37.5 nM
COCCOc1ccc(N/C=N/O)cc1 [Comp. 346] | 104 to 107 °C | 106.2 | 8.9 nM
COCCOCCOc1ccc(N/C=N/O)cc1 [Comp. 347] | 80.5 to 81.5 °C | 105 | 3.7 nM
CC1(C)OCC(COc2ccc(N/C=N/O)cc2)O1 (stereo not drawn) [Comp. 348] | 128.5 to 129.5 °C | 103 | 3.4 nM
O/N=C/Nc1ccc(OCCCc2ccccc2)cc1 [Comp. 349] | 152.5 to 153 °C | 100 | 1.6 nM
O/N=C/Nc1ccc(OCc2cccs2)cc1 [Comp. 350] | 168 to 168.5 °C | 91 | 1.4 nM
O/N=C/Nc1ccc(OCc2ccco2)cc1 [Comp. 352] | 158.5 to 159.5 °C | 97 | 4.6 nM
Cc1ncsc1CCOc1ccc(N/C=N/O)cc1 [Comp. 353] | 158 to 160 °C | 105 | 3.7 nM
CC(C)OCCOc1ccc(N/C=N/O)cc1 [Comp. 354] | 113 to 114 °C | 106 | 3 nM
O/N=C/Nc1ccc(OCCN2CCOCC2)cc1 [Comp. 355] | 141 to 142 °C | 107 | 5.9 nM
O/N=C/Nc1ccc(OCC2CC2)cc1 [Comp. 356] | 141 to 142.5 °C | 102 | 2.6 nM
O/N=C/Nc1ccc(OCCCc2ccccn2)cc1 [Comp. 358] | 138 to 139.5 °C | 103 | 3.1 nM
O/N=C/Nc1ccc(OCCSc2ccccn2)cc1 [Comp. 359] | 132.5 to 134.5 °C | 102 | 1.4 nM
CCSCCOc1ccc(N/C=N/O)cc1 [Comp. 361] | 104 to 106 °C | 106 | 2.1 nM
O/N=C/Nc1ccc(OCc2cccnc2)cc1 [Comp. 362] | 156 to 157 °C | 106 | 2.1 nM
O/N=C/Nc1ccc(OCCCc2cccnc2)cc1 [Comp. 363] | 154 to 155 °C | 105 | 0.78 nM
CC1(C)COC(CCOc2ccc(N/C=N/O)cc2)OC1 [Comp. 364] | 136.5 to 137.5 °C | 104 | 2 nM
O/N=C/Nc1ccc(OCCCOc2ccccc2)cc1 [Comp. 365] | 143.5 to 145 °C | 105 | 1.4 nM
O/N=C/Nc1ccc(OCCCc2ccncc2)cc1 [Comp. 366] | 188 to 189 °C | 105 | 1.2 nM
O/N=C/Nc1ccc(OCc2ccsc2)cc1 [Comp. 367] | 165 to 166 °C | 103 | 2.1 nM
O/N=C/Nc1ccc(OCc2ccoc2)cc1 [Comp. 368] | 165.5 to 166 °C | 96 | 2.5 nM
Cc1cccc(COc2ccc(N/C=N/O)cc2)n1 [Comp. 369] | 146.5 to 149 °C | 105 | 3.1 nM

Source: patent US7078400B2, “20-HETE synthase inhibitor” (Taisho Pharmaceutical Co., Ltd., priority 1999, dated 2006)
